# Entries after “also recorded” stand apart in the source; their conditions may differ. Ends that are not written are not given here.
# What was measured:
# [1] = system: HLA-A24+ hematologic malignant cell line (PEER, REH); experiment: 51Cr-release test of peptide-stimulated PBMCs against HLA-A24+ malignant line; type: cell-based, human; conditions: peptide-stimulated patient PBMCs further cultured with IL-2; effector/target 3, 10 or 30; 6 h
# Protocol: (§1) Then, the cytotoxicity against hematologic malignant cell lines was examined by a standard ^51Cr-release test (Non-Patent Reference 5). Specifically, the PBMCs obtained were used as an effector to mix with ^51Cr-labelled target cells (hereinafter referred to as targets) at an effector/target rate of 3, 10 or 30, and then incubated for six hours, followed by measuring the radioactivity of ^51Cr released in the supernatants. The results obtained were indicated as % lysis which was calculated by regarding a radioactivity as 100% when the targets were completely dissolved. The following targets were used: PEER, an HLA-A24^+ hematologic malignant cell line; HPB-MLT, an HLA-A24^− hematologic malignant cell line; and an HLA-A24^+ PHA blastoid T-cell.
# [2] = system: HLA-A24- hematologic malignant cell line (HPB-MLT); experiment: 51Cr-release test of peptide-stimulated PBMCs against HLA-A24- malignant line; type: cell-based, human; conditions: peptide-stimulated patient PBMCs further cultured with IL-2; effector/target 3, 10 or 30; 6 h
# Protocol: as §1
# [3] = system: HLA-A24+ PHA blastoid T-cell; experiment: 51Cr-release test of peptide-stimulated PBMCs against normal cells; type: cell-based, human; conditions: peptide-stimulated patient PBMCs further cultured with IL-2; effector/target 3, 10 or 30; 6 h
# Protocol: as §1
# [4] = Side effects and skin test, chronic lymphocytic leukemia patient; type: in vivo, human
# Protocol: Three kinds of emulsions each of which contains each of these peptides respectively and an adjuvant were prepared according to the method described in Example 1, and vaccinated to the patient by injecting subcutaneously at different sites of the patient's lateral thigh. […] The skin test was conducted by injecting intradermally the solution of 50 μg of each peptide in physiological saline and determining immediate-type or delayed-type hypersensitivity reaction at 20 minutes or 24 hours after the injection.
# Therefore, SART-293 (SEQ ID NO: 5) and SART-3109 (SEQ ID NO: 8) were used for vaccination. […] In the clinical trials of peptide vaccines in epithelial cancer patients, there has been observed a correlation between the survival rate of patients and the increased humoral immune responses against the peptides used in the vaccines. From these facts, it was believed that SART-293 (SEQ ID NO: 5) and SART-3109 (SEQ ID NO: 8) were effective in this patient.
# Thus, there were very few side effects observed.
# [5] = system: PBMCs of HLA-A24+ patients with hematologic malignancies; experiment: IFN-γ production by peptide-stimulated patient PBMCs in response to peptide-pulsed C1R-A24 cells; type: cell-based, human; set-up: peptide-specific IFN-γ production: unit not given here; conditions: for peptide-specific IFN-γ production: 10 μM peptide in vitro, vs peptide-pulsed C1R-A24, HIV-peptide background subtracted
# Protocol: The induction of peptide-specific cytotoxic T lymphocytes from PBMCs of a patient with hematologic malignancy was conducted as reported preveously (Non-Patent Reference 5). The following peptides were used to induce cytotoxic T lymphocytes: p56^lck protein-derived peptides (Lck208 (SEQ ID NO: 1), Lck488 (SEQ ID NO: 2) and Lck486 (SEQ ID NO: 3)); SART-1-derived peptide (SART-1690 (SEQ ID NO: 4)); SART-2-derived peptides (SART-293 (SEQ ID NO: 5), SART-2161 (SEQ ID NO: 6) and SART-2899 (SEQ ID NO: 7)); SART-3-derived peptides (SART-3109 (SEQ ID NO: 8) and SART-3315 (SEQ ID NO: 9)); and ART-1-derived peptide (ART-1170 (SEQ ID NO: 10)). All of these peptides are the epithelial cancer-related antigen-derived peptides and have the ability to induce cytotoxic T lymphocytes from PBMCs of an epithelial cancer patient in an HLA-A24 dependent manner (Non-Patent References 3-6 and 12). A human immunodeficiency virus (HIV)-derived peptide (SEQ ID NO: 11) and Epstein-Barr virus (EBV)-derived peptide (SEQ ID NO: 12) were used respectively as a negative control peptide and positive control peptide both of which have an HLA-A24-binding motif. […] PBMCs were prepared from peripheral blood that was collected from a patient with hematologic malignancy using Ficoll-Conray density-gradient centrifugation. The expression of HLA-A24 molecules on PBMCs was determined using flow cytometry by a well known method (Non-Patent Reference 5). The induction of cytotoxic T lymphocytes from PBMCs was conducted as follows. […] The culture medium consisted of 45% RPMI-1640, 45% AIM-V (Invitrogen), 10% FCS, 100 U/ml of interleukin-2 (IL-2), and 0.1 mM MEM non-essential amino acid solution (Invitrogen). […] The background IFN-γ production in response to the HIV-derived peptide (SEQ ID NO: 11) was subtracted from the values given in the data. When the mean value of the IFN-γ produced from the peptide-stimulated PBMCs in response to a corresponding peptide was higher than that produced in response to the HIV peptide (SEQ ID NO: 11), it was judged that the precursor of a peptide-specific cytotoxic T lymphocyte was present in the PBMCs and that the peptide-specific cytotoxic T lymphocytes were induced by the peptide. PBMCs of ten cases of HLA-A24^+ patients with hematologic malignancies (two cases with CLL, one case with MCL, one case with NHL, one case with B-ALL, one case with MM, one case with MDS, two cases with ATL, and one case with T-ALL) were tested for the induction of cytotoxic T lymphocytes using peptides that were derived from p56^lck protein, SART-1, SART-2, SART-3 and ART-1. The peptides used were the peptides that induced peptide-specific tumor-reactive cytotoxic T lymphocytes from PBMCs of an HLA-A24^+ epithelial cancer patient, which are currently on clinical trials for use as vaccines for epithelial cancer patients. The PBMCs were stimulated with the peptide in vitro to measure the peptide-specific IFN-γ production.
# [6] = system: C1R-A24 cells pulsed with the peptides; experiment: IFN-γ production of PBMCs of vaccinated chronic lymphocytic leukemia patient; type: in vivo, human; conditions: CLL patient No. 1, with the increasing number of peptide vaccination
# Text: The patient (patient No. 1 in table 2) subjected to clinical trials was a HLA-A24^+ […] suffering from chronic lymphocytic leukemia with a stage A by Bernet's classification.
# (§2) Two kinds of emulsions prepared using these peptides according to the methods described in Example 5 were vaccinated to the patient by injecting subcutaneously at different sites of the patient's lateral thigh.
# After each vaccination, PBMCs derived from the patient were studied for the peptide-specific cytotoxic T lymphocyte induction by measuring the amount of IFN-γ production as an indicator against C1R-A24 cells pulsed with the peptides used (see Example 3).
# [7] = system: C1R-A24 cells pulsed with the peptides; experiment: Cytotoxic activity of PBMCs of vaccinated chronic lymphocytic leukemia patient (51Cr-release); type: in vivo, human; conditions: CLL patient No. 1, PBMCs after vaccination, 51Cr-release test
# Text: as §2
substance,measurement,setting,value
AYDFLYNYL [SART-2161],cytotoxic activity (% lysis) against HLA-A24+ hematologic malignant line,[1],significant cytotoxic activity; also recorded: exhibited cytotoxic activity
same,cytotoxic activity (% lysis) against HLA-A24- hematologic malignant line,[2],did not show cytotoxic activity; also recorded: did not exhibit cytotoxic activity
same,cytotoxic activity (% lysis) against HLA-A24+ PHA blastoid T-cells,[3],did not show cytotoxic activity; also recorded: did not exhibit cytotoxic activity
EYCLKFTKL [ART-1170],immediate hypersensitivity reaction in skin test,"[4]; CLL patient No. 1, before vaccination",caused immediate hypersensitivity reaction
SART-293: SART-2-derived peptide; epithelial cancer-related antigen peptide (DYSARWNEI; Partial peptide of SART-2),peptide-specific IFN-γ production,[5]; PBMCs of patient #1 CLL,0
same,peptide-specific IFN-γ production,[5]; PBMCs of patient #2 CLL,440
same,peptide-specific IFN-γ production,[5]; PBMCs of patient #3 MCL,9
same,peptide-specific IFN-γ production,[5]; PBMCs of patient #4 NHL,63
same,peptide-specific IFN-γ production,[5]; PBMCs of patient #5 B-ALL,20
same,peptide-specific IFN-γ production,[5]; PBMCs of patient #6 MM,28
same,peptide-specific IFN-γ production,[5]; PBMCs of patient #7 MDS,0
same,peptide-specific IFN-γ production,[5]; PBMCs of patient #8 ATL,0
same,peptide-specific IFN-γ production,[5]; PBMCs of patient #9 ATL,354
same,peptide-specific IFN-γ production,[5]; PBMCs of patient #10 T-ALL,192
same,Responding case/total (enhancement of IFN-γ production),[5]; ten HLA-A24+ patients with hematologic malignancies,3/10
same,IFN-γ production in response to C1R-A24 cells pulsed with the peptide,[6],enhanced production of interferon (IFN)-γ
same,cytotoxic activity against peptide-pulsed C1R-A24 cells versus cells pulsed with HIV-derived peptide,[7],higher cytotoxic activity
SYTRLFLIL [SART-2899],cytotoxic activity (% lysis) against HLA-A24+ hematologic malignant line,[1],significant cytotoxic activity
same,cytotoxic activity (% lysis) against HLA-A24- hematologic malignant line,[2],did not show cytotoxic activity
same,cytotoxic activity (% lysis) against HLA-A24+ PHA blastoid T-cells,[3],did not show cytotoxic activity
TFDYLRSVL [Lck486],cytotoxic activity (% lysis) against HLA-A24+ hematologic malignant line,[1],significant cytotoxic activity; also recorded: exhibited cytotoxic activity
same,cytotoxic activity (% lysis) against HLA-A24- hematologic malignant line,[2],did not show cytotoxic activity; also recorded: did not exhibit cytotoxic activity
same,cytotoxic activity (% lysis) against HLA-A24+ PHA blastoid T-cells,[3],did not show cytotoxic activity; also recorded: did not exhibit cytotoxic activity
VYDYNCHVDL [SART-3109],delayed-type hypersensitivity reaction,"[4]; CLL patient No. 1, after the third vaccination",delayed-type hypersensitivity reaction was observed
